Experimental findings from patent US11970497B2, “Tricyclic AKR1C3 dependent KARS inhibitors” (Novartis AG, priority 2019, dated 2024) are described below.

The subject of experiment [1] is H460 (NRF2 pathway mutant cell line with high AKR1C3 expression). The experiment in a line: In vitro cell proliferation assay (CellTiter-Glo), H460. The class given is cell-based. Particulars: Homo sapiens, NCI-H460, 72 h; H460 cells, 3 days, CellTiter-Glo, top concentration 10 μM; read-out: H460 Qualified absolute AC50. In short, it runs like this: (§1)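 Luminescent CellTiter-Glo readout after 3-day compound exposure at 37 °C; 8-point 1:5 series, top 10 μM final. Seeding: 800 cells/well for H460, 2000 cells/well for Hara, RPMI-1640 plus 10% FBS. AC50 and percentage activity derived after normalizing to DMSO (1%) and MG132 (30 μM) controls.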

Experiment [2] concerns Hara (NRF2 pathway wild type cell line with low AKR1C3 expression). The experiment in a line: In vitro cell proliferation assay (CellTiter-Glo), Hara. The class given is cell-based. The following applies: 72 h; Hara cells, 3 days, CellTiter-Glo, top concentration 10 μM; read-out: HARA Qualified absolute AC50. In short, it runs like this:
as §1

In a further experiment the target is T1, Human KARS (Homo sapiens, UniProt Q15046).
T1 construct: Human KARS protein (residues 70-584) was expressed and purified; made in house
The experiment in a line: KARS AMP Transcreener FP assay. Type of experiment: biochemical. The following applies: 50 nM human KARS, 20 μM ATP, 50 μM L-Lysine, 1 μM tRNA, 2 h at RT; read-out: Human KARS Transcreener AMP assay Qualified absolute AC50. The source says:
KARS AMP Transcreener FP Assay to Measure Inhibition of KARS Enzymatic Activity
Lysine-tRNA synthetase (KARS) is an enzyme that catalyzes the reaction of ATP, L-lysine, and tRNA(Lys) to form AMP, diphosphate, and L-lysyl-tRNA(Lys).
The Transceener® AMP/GMP (BellBrook Labs, Madison, WI, USA) is a far red, competitive fluorescence polarization (FP) immunoassay based on the detection of AMP, which is one of the products of aminoacylation of tRNA. In this assay, a fluorescently labeled AMP (AMP Alexa Fluor 633) is used as the tracer that can be recognized by a specific antibody. In the absence of AMP, all the tracer molecules are bound to the antibodies leading to large polarization. The AMP product generated by the enzyme reaction will compete with the tracer for binding to the antibody which leads to a decrease in the polarization. As such, the enzyme activity is inversely proportional to FP values.
Human KARS protein (residues 70-584) was expressed and purified using a similar protocol to what is described in literature (Crystal structure of tetrameric form of human lysyl-tRNA synthetase: Implications for multisynthetase complex formation Guo, M., Ignatov, M., Musier-Forsyth, K., Schimmel, P., Yang, X. L. (2008) Proc. Natl. Acad. Sci. Usa 105: 2331-2336).
The KARS enzyme assay was performed in a final volume of 10 μL per well of Corning Costar 384 well plate, flat bottom, black non-treated plate. The final assay concentration was 20 mM HEPES pH 7.5, 1 mM DTT, 50 nM human KARS, 20 μM ATP, 50 μM L-Lysine, 1 μM tRNA and 8 mM MgCl2. Compounds were serial diluted 1:3 in DMSO in a master plate to generate a 10 concentration points dose response with maximum concentration of 10 mM. 50 nL from compound master plate were spotted in each well of a 384 black plate (Corning 3573), and 5 μL of enzyme mixture containing 100 nM KARS diluted in assay buffer (20 mM HEPES pH 7.5 and 1 mM OTT) were added. The reaction was started by adding 5 μL of the substrate mixture containing 40 μM ATP (final 20 μM ATP), 100 μM L-Lysine (final 50 μM), 2 μM tRNA (final 1 μM), 16 mM MgCl2 (final 8 mM MgCl2) diluted in assay buffer (20 mM HEPES pH 7.5 and 1 mM OTT). The mixtures were mixed and incubated for 2 h at RT before the termination of the reaction.
Transcreener® stop and detection buffers were prepared (1× stop buffer [final: 0.5×], 2 nM Tracer [final: 1 nM] and 5 μg/ml anti-AMP antibody [final: 2.5 μg/ml] in deionized water) and 10 μL of the stop and detection mix were added to the reaction wells, mixed for a minute and centrifuged at 1000 rpm for 10 seconds. The plates were read after incubating at RT for 30-60 min using Infinite® M1000 with the following settings: Excitation wavelength: 635 nm; Emission wavelength: 680 nm. FP values of DMSO controls were used to normalize the data and calculate IC50s of compounds using the Helios Software suite.

T1 sequence (Q15046 70-584): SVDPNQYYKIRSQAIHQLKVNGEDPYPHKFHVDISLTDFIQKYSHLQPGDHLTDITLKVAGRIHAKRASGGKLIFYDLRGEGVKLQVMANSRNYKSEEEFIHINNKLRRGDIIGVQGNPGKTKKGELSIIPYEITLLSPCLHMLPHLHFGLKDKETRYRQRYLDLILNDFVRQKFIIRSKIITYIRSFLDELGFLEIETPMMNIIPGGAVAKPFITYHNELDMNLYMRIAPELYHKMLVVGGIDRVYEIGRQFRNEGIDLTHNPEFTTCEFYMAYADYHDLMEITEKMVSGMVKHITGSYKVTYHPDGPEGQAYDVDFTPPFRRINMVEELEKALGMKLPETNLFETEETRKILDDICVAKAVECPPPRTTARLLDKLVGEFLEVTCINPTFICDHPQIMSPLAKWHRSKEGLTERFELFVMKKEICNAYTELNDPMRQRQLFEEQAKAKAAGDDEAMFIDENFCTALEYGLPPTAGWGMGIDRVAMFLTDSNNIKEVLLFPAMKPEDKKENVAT

With `CS(=O)(=O)Nc1cc(CNC(=O)N2CCC3(CC2)CC(O)c2cc(F)ccc2N3)ccc1F` (racemic) [Example 164, 6′-fluoro-N-(4-fluoro-3-(methylsulfonamido)benzyl)-4′-hydroxy-3′,4′-dihydro-1′H-spiro[piperidine-4,2′-quinoline]-1-carboxamide], the figures for the AC50 (in experiment [1]; in experiment [2]; at Human KARS) were 253 nM, 234 nM and 106 nM, respectively.

With `CN1c2ccc(F)cc2C(=O)CC12CCN(C(=O)NCc1ccc(F)cc1)CC2` [Example 9, 6′-fluoro-N-(4-fluorobenzyl)-1′-methyl-4′-oxo-3′,4′-dihydro-1′H-spiro[piperidine-4,2′-quinoline]-1-carboxamide], the AC50 in experiment [1] was 17 nM; in experiment [2], above 10000 nM; at Human KARS, above 10000 nM.

As for `NC(=O)c1cc(CNC(=O)N2CCC3(CC2)CC(O)c2cc(F)ccc2N3)ccc1F` (racemic) [Example 160, N-(3-carbamoyl-4-fluorobenzyl)-6′-fluoro-4′-hydroxy-3′,4′-dihydro-1′H-spiro[piperidine-4,2′-quinoline]-1-carboxamide], the half-maximal activity concentration (AC50) in experiment [1] was found to be 0.4 nM; in experiment [2] it was 1 nM; on Human KARS, 47.2 nM.

In the case of `CN1c2ccc(F)cc2C(O)CC12CCN(C(=O)NCc1ccc(F)c(OCCO)c1)CC2` (racemic) [Example 163], the figures for the AC50 (in experiment [1]; in experiment [2]; on Human KARS) were 76 nM, 11 nM and 98.4 nM, respectively.

As to `CN1c2ccc(F)cc2[C@H](O)CC12CCN(C(=O)NCc1ccc(F)cc1)CC2` (single isomer, unassigned) [Example 151a], the figures for the AC50 (in experiment [1]; in experiment [2]; on Human KARS) were 24 nM, 20 nM and 9.1 nM, respectively.

For `CN1c2ccc(F)cc2C(O)CC12CCN(C(=O)NCc1cc(NCCO)c(F)cc1F)CC2` (racemic) [Example 156, N-(2,4-difluoro-5-((2-hydroxyethyl)amino)benzyl)-6′-fluoro-4′-hydroxy-1′-methyl-3′,4′-dihydro-1′H-spiro[piperidine-4,2′-quinoline]-1-carboxamide], the values for the AC50 (in experiment [1]; in experiment [2]; on Human KARS) were 49 nM, 80 nM and 23.5 nM, respectively.

On to `CN1c2ccc(F)cc2C(O)CC12CCN(C(=O)NCc1ccc(F)c(CC(N)=O)c1)CC2` (racemic) [Example 161, N-(3-(2-amino-2-oxoethyl)-4-fluorobenzyl)-6′-fluoro-4′-hydroxy-1′-methyl-3′,4′-dihydro-1′H-spiro[piperidine-4,2′-quinoline]-1-carboxamide], for which the AC50 in experiment [1] worked out at 278 nM; in experiment [2] it was 91 nM; on Human KARS, 71.8 nM.

Take `COCCNc1cc(F)ccc1CNC(=O)N1CCC2(CC1)CC(O)c1cc(F)ccc1N2C` (racemic) [Example 166, 6′-fluoro-N-(4-fluoro-2-((2-methoxyethyl)amino)benzyl)-4′-hydroxy-1′-methyl-3′,4′-dihydro-1′H-spiro[piperidine-4,2′-quinoline]-1-carboxamide]: the AC50 was determined as 3 nM in experiment [1], 22 nM in experiment [2] and 243 nM on Human KARS.

With `CN1c2ccc(F)cc2C(O)CC12CCN(C(=O)NCc1ccc(F)c([C@@H](N)C(F)(F)F)c1)CC2` (mixture of isomers) [Example 167, N-(3-((R)-1-amino-2,2,2-trifluoroethyl)-4-fluorobenzyl)-6′-fluoro-4′-hydroxy-1′-methyl-3′,4′-dihydro-1′H-spiro[piperidine-4,2′-quinoline]-1-carboxamide], the AC50 in experiment [1] stood at 345 nM; in experiment [2], 100 nM; on Human KARS, 918 nM.

`O=C(NC1CC(O)C1)c1cc(CNC(=O)N2CCC3(CC2)CC(O)c2cc(F)ccc2N3)ccc1F` (racemic) [Example 162, 6′-fluoro-N-(4-fluoro-3-((3-hydroxycyclobutyl)carbamoyl)benzyl)-4′-hydroxy-3′,4′-dihydro-1′H-spiro[piperidine-4,2′-quinoline]-1-carboxamide]: the AC50 in experiment [1] stood at 47 nM; at Human KARS, 73.7 nM.

`CN1c2ccc(F)cc2C(=O)CC12CCN(C(=O)NCc1ccc(F)cc1F)CC2` [Example 5, N-(2,4-difluorobenzyl)-6′-fluoro-1′-methyl-4′-oxo-3′,4′-dihydro-1′H-spiro[piperidine-4,2′-quinoline]-1-carboxamide]: the AC50 in experiment [1] was 8 nM; in experiment [2] it was above 10000 nM.

In the case of `CCCNC(=O)c1cc(CNC(=O)N2CCC3(CC2)CC(=O)c2cc(F)ccc2N3)ccc1F` [Example 143, 6′-fluoro-N-(4-fluoro-3-(propylcarbamoyl)benzyl)-4′-oxo-3′,4′-dihydro-1′H-spiro[piperidine-4,2′-quinoline]-1-carboxamide], the AC50 in experiment [1] is 2620 nM; in experiment [2], above 10000 nM.

With `CCN1c2ccc(F)cc2C(=O)CC12CCN(C(=O)NCc1ccc(F)c(C(N)=O)c1)CC2` [Example 13, N-(3-carbamoyl-4-fluorobenzyl)-1′-ethyl-6′-fluoro-4′-oxo-3′,4′-dihydro-1′H-spiro[piperidine-4,2′-quinoline]-1-carboxamide], the AC50 in experiment [1] stood at 25 nM; in experiment [2], 7950 nM.

`Cc1ccc(CNC(=O)N2CCC3(CC2)CC(=O)c2cc(F)cc(F)c2N3)s1` [Example 123, 6′,8′-difluoro-N-((5-methylthiophen-2-yl)methyl)-4′-oxo-3′,4′-dihydro-1′H-spiro[piperidine-4,2′-quinoline]-1-carboxamide]: the values for the AC50 in experiment [1] and in experiment [2] were 1140 nM and 5390 nM, respectively.

Turning to `Nc1ccc(CNC(=O)N2CCC3(CC2)CC(=O)c2cc(F)ccc2N3)cc1C(F)(F)F` [Example 112, N-(4-amino-3-(trifluoromethyl)benzyl)-6′-fluoro-4′-oxo-3′,4′-dihydro-1′H-spiro[piperidine-4,2′-quinoline]-1-carboxamide], the AC50 in experiment [1] was 783 nM; in experiment [2], above 10000 nM.

With `CN1c2ccc(F)cc2C(=O)CC12CCN(C(=O)NCc1ccc(F)c(NS(C)(=O)=O)c1)CC2` [Example 55, 6′-fluoro-N-(4-fluoro-3-(methylsulfonamido)benzyl)-1′-methyl-4′-oxo-3′,4′-dihydro-1′H-spiro[piperidine-4,2′-quinoline]-1-carboxamide], the AC50 in experiment [1] turned out to be 150 nM; in experiment [2], 5170 nM.

Consider `CN1c2ccc(F)cc2C(=O)CC12CCN(C(=O)NCc1ccc(F)c(OCCO)c1)CC2` [Example 3, 6′-fluoro-N-(4-fluoro-3-(2-hydroxyethoxy)benzyl)-1′-methyl-4′-oxo-3′,4′-dihydro-1′H-spiro[piperidine-4,2′-quinoline]-1-carboxamide], for which the AC50 was found to be 5 nM in experiment [1] and 1760 nM in experiment [2].

As for `CN1c2ccc(F)cc2[C@@H](O)CC12CCN(C(=O)NCc1ccc(F)cc1)CC2` (single isomer, unassigned) [Example 151b], the AC50 in experiment [1] is 3400 nM; in experiment [2] it was 6070 nM.

As for `O=C1CC2(CCN(C(=O)NCc3ccc(F)nc3)CC2)Nc2c(F)cc(F)cc21` [Example 125, 6′,8′-difluoro-N-((6-fluoropyridin-3-yl)methyl)-4′-oxo-3′,4′-dihydro-1′H-spiro[piperidine-4,2′-quinoline]-1-carboxamide], the AC50 in experiment [1] was 1170 nM; in experiment [2] it was above 10000 nM.
